Data as given in ChEMBL document CHEMBL3588811, “Boehmenan, a lignan from Hibiscus ficulneus, showed Wnt signal inhibitory activity” (Bioorg Med Chem Lett, 2015).
Activity calls are given as the source filed them. The calls are words filed in the database; no cut-off is given here.

How the values were obtained:
HEK293 [1] = experiment: Inhibition of Wnt/beta-catenin signaling in HEK293 cells stably transfected with TOP reporter gene assessed as TCF/beta-catenin transcriptional activity after 24 hrs by TOP activity/luciferase reporter gene assay; assay type: cell-based; settings: Homo sapiens; for IC50: HEK293, 24 h
HEK293 [2] = experiment: Inhibition of Wnt/beta-catenin signaling in HEK293 cells stably transfected with FOP reporter gene assessed as TCF/beta-catenin transcriptional activity after 24 hrs by FOP activity/luciferase reporter gene assay; assay type: cell-based; settings: Homo sapiens
SW480 = experiment: Cytotoxicity against human Wnt-dependent SW480 cells after 24 hrs by fluorometric microculture cytotoxicity assay; assay type: functional, cell-based; settings: SW480, 24 h
[3] = Cytotoxicity against human Wnt-dependent DLD1 cells after 24 hrs by fluorometric microculture cytotoxicity assay; assay type: functional, cell-based; settings: DLD-1, 24 h
RKO = experiment: Cytotoxicity against human Wnt-independent RKO cells after 24 hrs by fluorometric microculture cytotoxicity assay; assay type: functional, cell-based
HCT-116 = experiment: Cytotoxicity against human Wnt-dependent HCT116 cells after 24 hrs by fluorometric microculture cytotoxicity assay; assay type: functional, cell-based; settings: HCT-116, 24 h
HEK293 [4] = experiment: Cytotoxicity against human HEK293 cells after 24 hrs by fluorometric microculture cytotoxicity assay; assay type: cell-based; settings: HEK293, 24 h
HEK293 [5] = experiment: Reduction in beta-catenin level in human HEK293 cell nucleus stably transfected with TOP reporter gene at 20 uM after 24 hrs by Western blot analysis in presence of 1 uM MG132; assay type: functional, cell-based
HEK293 [6] = experiment: Reduction in beta-catenin level in human HEK293 cell nucleus stably transfected with TOP reporter gene at 1 to 20 uM after 24 hrs by Western blot analysis; assay type: functional, cell-based
HEK293 [7] = experiment: Reduction in beta-catenin level in human HEK293 cell cytosol stably transfected with TOP reporter gene at 1 to 20 uM after 24 hrs by Western blot analysis; assay type: functional, cell-based
HEK293 [8] = experiment: Reduction in c-myc level in human HEK293 cell nucleus stably transfected with TOP reporter gene at 1 to 20 uM after 24 hrs by Western blot analysis; assay type: functional, cell-based

SMILES: COc1cc(/C=C/C(=O)OCCCc2cc(OC)c3c(c2)[C@@H](COC(=O)/C=C/c2ccc(O)c(OC)c2)[C@H](c2cc(OC)c(O)c(OC)c2)O3)ccc1O
- inhibition (HEK293 [1]): Dose-dependent effect
- IC50 (HEK293 [1]): 1.9 µM
- Activity (HEK293 [2]): inactive
- IC50 (SW480): > 40 µM
- IC50 [3]: > 40 µM
- IC50 (RKO): > 40 µM
- IC50 (HCT-116): > 40 µM
- IC50 (HEK293 [4]): 36.1 µM

SMILES: COc1cc(/C=C/C(=O)OCCCc2ccc(O[C@@H](COC(=O)/C=C/c3ccc(O)c(OC)c3)[C@@H](O)c3ccc(O)c(OC)c3)c(OC)c2)ccc1O (relative stereo)
- inhibition (HEK293 [1]): Dose-dependent effect
- IC50 (HEK293 [1]): 6.3 µM
- Activity (HEK293 [2]): inactive
- IC50 (SW480): > 40 µM
- IC50 [3]: > 40 µM
- IC50 (RKO): 36.1 µM
- IC50 (HCT-116): > 40 µM
- IC50 (HEK293 [4]): 26.4 µM

SMILES: COc1cc(/C=C/C(=O)OCCCc2cc(OC)c3c(c2)[C@@H](COC(=O)/C=C/c2ccc(O)c(OC)c2)[C@H](c2ccc(O)c(OC)c2)O3)ccc1O
- inhibition (HEK293 [1]): Dose-dependent effect
- IC50 (HEK293 [1]): 1 µM
- inhibition (HEK293 [5]): inactive
- Activity (HEK293 [2]): inactive
- IC50 (SW480): > 40 µM
- inhibition (HEK293 [6]): Active
- IC50 [3]: > 40 µM
- IC50 (RKO): 25.4 µM
- IC50 (HCT-116): > 22.8 µM
- IC50 (HEK293 [4]): 30.3 µM
- inhibition (HEK293 [7]): Active
- inhibition (HEK293 [8]): Active

SMILES: CC1(C)CC[C@]2(C(=O)O)CC[C@]3(COC(=O)/C=C/c4ccc(O)c(O)c4)C(=CC[C@@H]4[C@@]5(C)CC[C@H](OC(=O)/C=C/c6ccc(O)c(O)c6)C(C)(C)[C@@H]5CC[C@]43C)[C@@H]2C1
- IC50 (HEK293 [1]): 14.8 µM
- IC50 (SW480): > 40 µM
- IC50 [3]: > 40 µM
- IC50 (RKO): > 40 µM
- IC50 (HCT-116): > 40 µM
- IC50 (HEK293 [4]): 29.3 µM

SMILES: COc1cc(/C=C/C(=O)OCCCc2ccc(O[C@@H](COC(=O)/C=C/c3ccc(O)c(OC)c3)[C@@H](O)c3ccc(O)c(OC)c3)c(O)c2)ccc1O
- inhibition (HEK293 [1]): Dose-dependent effect
- IC50 (HEK293 [1]): 4.5 µM
- Activity (HEK293 [2]): inactive
- IC50 (SW480): > 40 µM
- IC50 [3]: > 40 µM
- IC50 (RKO): 23 µM
- IC50 (HCT-116): > 39 µM
- IC50 (HEK293 [4]): 24.2 µM
